Laboratory results taken from patent publication US20250320193A1, “OXOISOINDOLINYL SUBSTITUTED PIPERIDINEDIONE DERIVATIVE AND USE THEREOF” (GLUETACS THERAPEUTICS (SHANGHAI) CO., LTD., priority 2022, published 2025).

Molecular target: human Cereblon WT GST-tagged protein (Homo sapiens (Human), UniProt Q96SW2)
Experiment: CRBN-binding affinity, HTRF (CEREBLON BINDING kit, CISBIO)
Details: HTRF inhibitory activity
Description: I. Determination of CRBN-binding affinity of compounds of the present disclosure:
The CEREBLON BINDING kits (specification: 10,000 tests; product number: Catalog #64BDCRBNPEH; CISBIO company) was used to determine the CRBN binding ability of the compounds to be tested through a HTRF method (homogeneous time-resolved fluorescence). The specific methods are as follows: • 1. […] Then, 2.5 μL of human Cereblon WT GST-tagged protein solution was added to each well. Finally, 5 μL of the thoroughly mixed Thalidomide-Red reagent and GST Eu antibody working solution were added to each of the aforementioned wells. […] The blank control wells were sequentially added with 2.5 μL of diluent #9 (1X) solution, 2.5 μL of PROTAC binding buffer, and 5 μL of thoroughly mixed Thalidomide-Red reagent and GST Eu antibody working solution. • 4.
The corresponding CRBN binding inhibition rate was calculated using the following method: […]
OD 620 nmcompound is the absorbance value of each well of the compounds to be tested of the present disclosure at an emission wavelength of 620 nm. […] OD 620 nmcontrol is the absorbance value of the blank control well at an emission wavelength of 620 nm. […] OD 620 nmStd0 is the absorbance value of the solvent control well at an emission wavelength of 620 nm.

Sequence of human Cereblon WT GST-tagged protein (Q96SW2 whole entry): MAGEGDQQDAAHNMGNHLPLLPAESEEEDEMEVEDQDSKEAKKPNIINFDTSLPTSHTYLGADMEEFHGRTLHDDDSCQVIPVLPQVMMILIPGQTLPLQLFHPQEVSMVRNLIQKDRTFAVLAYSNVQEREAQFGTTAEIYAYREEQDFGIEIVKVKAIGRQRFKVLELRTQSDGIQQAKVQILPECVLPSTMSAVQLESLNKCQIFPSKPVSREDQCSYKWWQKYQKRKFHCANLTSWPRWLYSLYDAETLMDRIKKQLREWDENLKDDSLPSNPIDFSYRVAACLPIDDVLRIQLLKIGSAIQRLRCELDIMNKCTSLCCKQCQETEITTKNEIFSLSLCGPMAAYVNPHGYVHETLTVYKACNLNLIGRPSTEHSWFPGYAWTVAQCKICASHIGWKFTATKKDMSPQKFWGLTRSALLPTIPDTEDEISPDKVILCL

**Q.** How did the IC50 turn out when O=C1CCC(N2Cc3cc(-c4ccc(CN5CCN(C(c6ccccc6)c6ccccc6)CC5)cc4)ccc3C2=O)C(=O)N1 (centres unmarked) [GT-05867, 3-(5-(4-((4-benzhydrylpiperazin-1-yl)methyl)phenyl)-1-oxoisoindolin-2-yl)piperidine-2,6-dione] was run?
**A.** The IC50 was 1 to 1.9 µM.

**Q.** With O=C1CCC(N2Cc3cc(C(=O)N4CCN(C(c5ccc(Cl)cc5)c5ccc(Cl)cc5)CC4)cc(F)c3C2=O)C(=O)N1 (centres unmarked) [GT-05887, 3-(5-(4-(bis(4-chlorophenyl)methyl)piperazine-1-carbonyl)-7-fluoro-1-oxoisoindolin-2-yl)piperidine-2,6-dione] as the molecule, how does the IC50 read?
**A.** The IC50 was 1 to 1.9 µM.

**Q.** How did the IC50 turn out when O=C1CCC(N2Cc3ccc(C(=O)N4CCN(C(c5ccc(Cl)cc5)c5ccc(Cl)cc5)CC4)cc3C2=O)C(=O)N1 (centres unmarked) [GT-05888, 3-(6-(4-(bis(4-chlorophenyl)methyl)piperazine-1-carbonyl)-1-oxoisoindolin-2-yl)piperidine-2,6-dione] was run?
**A.** Its IC50 is 1 to 1.9 µM.

**Q.** For O=C1CCC(N2Cc3cc(CN4C[C@@H]5C[C@H]4CN5C(c4ccccc4)c4ccccc4)cc(F)c3C2=O)C(=O)N1 (stereo partly drawn) [GT-05895, 3-(5-(((1S,4S)-5-benzhydryl-2,5-diazabicyclo[2.2.1]heptan-2-yl)methyl)-7-fluoro-1-oxoisoindolin-2-yl)piperidine-2,6-dione], which IC50 is on record?
**A.** Its IC50 is < 0.5 µM.

**Q.** For O=C1CCC(N2Cc3cc(CN4CC5CCC(C4)N5C(c4ccccc4)c4ccccc4)c(F)cc3C2=O)C(=O)N1 (centres unmarked) [GT-05896, 3-(5-((8-benzhydryl-3,8-diazabicyclo[3.2.1]octan-3-yl)methyl)-6-fluoro-1-oxoisoindolin-2-yl)piperidine-2,6-dione], which IC50 is on record?
**A.** The IC50 was 0.5 to 1 µM.

**Q.** For O=C1CCC(N2Cc3cc(CN4CC5CCC(C4)N5C(c4ccccc4)c4ccccc4)cc(F)c3C2=O)C(=O)N1 (centres unmarked) [GT-05897, 3-(5-((8-benzhydryl-3,8-diazabicyclo[3.2.1]octan-3-yl)methyl)-7-fluoro-1-oxoisoindolin-2-yl)piperidine-2,6-dione], which IC50 is on record?
**A.** The IC50 was 0.5 to 1 µM.

**Q.** How did the IC50 turn out when O=C1CCC(N2Cc3cc(CN4CC5(CCN(C(c6ccccc6)c6ccccc6)CC5)C4)ccc3C2=O)C(=O)N1 (centres unmarked) [GT-05901, 3-(5-((7-benzhydryl-2,7-diazaspiro[3.5]nonan-2-yl)methyl)-1-oxoisoindolin-2-yl)piperidine-2,6-dione] was run?
**A.** The IC50 was < 0.5 µM.

**Q.** With O=C1CCC(N2Cc3c(ccc(CN4CC5(CCN(C(c6ccccc6)c6ccccc6)CC5)C4)c3F)C2=O)C(=O)N1 (centres unmarked) [GT-05902, 3-(5-((7-benzhydryl-2,7-diazaspiro[3.5]nonan-2-yl)methyl)-4-fluoro-1-oxoisoindolin-2-yl)piperidine-2,6-dione] as the molecule, how does the IC50 read?
**A.** The IC50 was 0.5 to 1 µM.

**Q.** With O=C1CCC(N2Cc3cc(CN4CC5(CCN(C(c6ccccc6)c6ccccc6)CC5)C4)c(F)cc3C2=O)C(=O)N1 (centres unmarked) [GT-05903, 3-(5-((7-benzhydryl-2,7-diazaspiro[3.5]nonan-2-yl)methyl)-6-fluoro-1-oxoisoindolin-2-yl)piperidine-2,6-dione] as the molecule, how does the IC50 read?
**A.** The IC50 was 0.5 to 1 µM.

**Q.** O=C1CCC(N2Cc3cc(CN4CC5(CCN(C(c6ccccc6)c6ccccc6)CC5)C4)cc(F)c3C2=O)C(=O)N1 (centres unmarked) [GT-05904, 3-(5-((7-benzhydryl-2,7-diazaspiro[3.5]nonan-2-yl)methyl)-7-fluoro-1-oxoisoindolin-2-yl)piperidine-2,6-dione] was tested. Which IC50 did it give?
**A.** The IC50 was 0.5 to 1 µM.

**Q.** O=C1CCC(N2Cc3cc(C(=O)N4C5CC4CN(C(c4ccccc4)c4ccccc4)C5)cc(F)c3C2=O)C(=O)N1 (centres unmarked) [GT-05916, 3-(5-(3-benzhydryl-3,6-diazabicyclo[3.1.1]heptane-6-carbonyl)-7-fluoro-1-oxoisoindolin-2-yl)piperidine-2,6-dione] was tested. Which IC50 did it give?
**A.** Its IC50 is < 0.5 µM.

**Q.** For O=C1CCC(N2C(=O)c3ccc(C(=O)N4C5CC4CN(C(c4ccccc4)c4ccccc4)C5)cc3C2=O)C(=O)N1 (centres unmarked) [GT-05918, 5-(3-benzhydryl-3,6-diazabicyclo[3.1.1]heptane-6-carbonyl)-2-(2,6-dioxopiperidin-3-yl) isoindoline-1,3-dione], which IC50 is on record?
**A.** Its IC50 is 1 to 1.9 µM.

**Q.** How did the IC50 turn out when CC1CN(C(c2ccccc2)c2ccccc2)CC(C)N1C(=O)c1cc(F)c2c(c1)CN(C1CCC(=O)NC1=O)C2=O (centres unmarked) [GT-05921, 3-(5-(4-benzhydryl-2,6-dimethylpiperazine-1-carbonyl)-7-fluoro-1-oxoisoindolin-2-yl)piperidine-2,6-dione] was run?
**A.** Its IC50 is 0.5 to 1 µM.

**Q.** O=C1CCC(N2C(=O)c3cc(F)c(N4CC5CCC4CN5C(c4ccccc4)c4ccccc4)cc3C2=O)C(=O)N1 (centres unmarked) [GT-05936, 5-(5-benzhydryl-2,5-diazabicyclo[2.2.2]octan-2-yl)-2-(2,6-dioxopiperidin-3-yl)-6-fluoroisoindoline-1,3-dione] was tested. Which IC50 did it give?
**A.** The IC50 was 0.5 to 1 µM.

**Q.** O=C1CCC(N2Cc3cc(CN4C[C@H]5C[C@@H]4CN5C(c4ccccc4)c4ccccc4)c(F)cc3C2=O)C(=O)N1 (stereo partly drawn) [GT-05958, 3-(5-(((1R,4R)-5-benzhydryl-2,5-diazabicyclo[2.2.1]heptan-2-yl)methyl)-6-fluoro-1-oxoisoindolin-2-yl)piperidine-2,6-dione] was tested. Which IC50 did it give?
**A.** Its IC50 is 0.5 to 1 µM.

**Q.** O=C1CCC(N2Cc3cc(CN4CC5CCC4CN5C(c4ccccc4)c4ccccc4)cc(F)c3C2=O)C(=O)N1 (centres unmarked) [GT-05964, 3-(5-((5-benzhydryl-2,5-diazabicyclo[2.2.2]octan-2-yl)methyl)-7-fluoro-1-oxoisoindolin-2-yl)piperidine-2,6-dione] was tested. Which IC50 did it give?
**A.** The IC50 was 0.5 to 1 µM.

**Q.** With O=C1CCC(N2Cc3cc(CN4CCC5(CCN(C(c6ccccc6)c6ccccc6)CC5)C4)ccc3C2=O)C(=O)N1 (centres unmarked) [GT-05969, 3-(5-((8-benzhydryl-2,8-diazaspiro[4.5]decan-2-yl)methyl)-1-oxoisoindolin-2-yl)piperidine-2,6-dione] as the molecule, how does the IC50 read?
**A.** The IC50 was 1 to 1.9 µM.

**Q.** Which IC50 does the source give for O=C1CCC(N2Cc3cc(CN4CCC5(CCN(C(c6ccccc6)c6ccccc6)CC5)C4)cc(F)c3C2=O)C(=O)N1 (centres unmarked) [GT-05972, 3-(5-((8-benzhydryl-2,8-diazaspiro[4.5]decan-2-yl)methyl)-7-fluoro-1-oxoisoindolin-2-yl)piperidine-2,6-dione] here?
**A.** Its IC50 is 1 to 1.9 µM.

**Q.** For O=C1CCC(N2Cc3cc(C(=O)N4C[C@@H]5C[C@H]4CN5C(c4ccccc4)c4ccccc4)ccc3C2=O)C(=O)N1 (stereo partly drawn) [GT-05977, 3-(5-((1S,4S)-5-benzhydryl-2,5-diazabicyclo[2.2.1]heptane-2-carbonyl)-1-oxoisoindolin-2-yl)piperidine-2,6-dione], which IC50 is on record?
**A.** Its IC50 is 0.5 to 1 µM.

**Q.** With O=C1CCC(N2Cc3cc(C(=O)N4C[C@@H]5C[C@H]4CN5C(c4ccccc4)c4ccccc4)cc(F)c3C2=O)C(=O)N1 (stereo partly drawn) [GT-05978, 3-(5-((1S,4S)-5-benzhydryl-2,5-diazabicyclo[2.2.1]heptane-2-carbonyl)-7-fluoro-1-oxoisoindolin-2-yl)piperidine-2,6-dione] as the molecule, how does the IC50 read?
**A.** Its IC50 is 1 to 1.9 µM.

**Q.** With O=C1CCC(N2Cc3cc(C(=O)N4CC5CCC(C4)N5C(c4ccccc4)c4ccccc4)cc(F)c3C2=O)C(=O)N1 (centres unmarked) [GT-05981, 3-(5-(8-benzhydryl-3,8-diazabicyclo[3.2.1]octane-3-carbonyl)-7-fluoro-1-oxoisoindolin-2-yl)piperidine-2,6-dione] as the molecule, how does the IC50 read?
**A.** Its IC50 is 0.5 to 1 µM.

**Q.** With O=C1CCC(N2Cc3cc(C(=O)N4C5CCC4CN(C(c4ccccc4)c4ccccc4)C5)ccc3C2=O)C(=O)N1 (centres unmarked) [GT-05983, 3-(5-(3-benzhydryl-3,8-diazabicyclo[3.2.1]octane-8-carbonyl)-1-oxoisoindolin-2-yl)piperidine-2,6-dione] as the molecule, how does the IC50 read?
**A.** The IC50 was 0.5 to 1 µM.

**Q.** Which IC50 does the source give for O=C1CCC(N2Cc3c(C(=O)N4CCN(C(c5ccc(Cl)cc5)c5ccc(Cl)cc5)CC4)cccc3C2=O)C(=O)N1 (centres unmarked) [GT-05985, 3-(4-(4-(bis(4-chlorophenyl)methyl)piperazine-1-carbonyl)-1-oxoisoindolin-2-yl)piperidine-2,6-dione] here?
**A.** The IC50 was 0.5 to 1 µM.

**Q.** O=C1CCC(N2Cc3cc(C(=O)N4C[C@H]5C[C@@H]4CN5C(c4ccccc4)c4ccccc4)ccc3C2=O)C(=O)N1 (stereo partly drawn) [GT-05990, 3-(5-((1R,4R)-5-benzhydryl-2,5-diazabicyclo[2.2.1]heptane-2-carbonyl)-1-oxoisoindolin-2-yl)piperidine-2,6-dione] was tested. Which IC50 did it give?
**A.** The IC50 was < 0.5 µM.

**Q.** For O=C1CCC(N2Cc3cc(C(=O)N4C[C@H]5C[C@@H]4CN5C(c4ccccc4)c4ccccc4)cc(F)c3C2=O)C(=O)N1 (stereo partly drawn) [GT-05991, 3-(5-((1R,4R)-5-benzhydryl-2,5-diazabicyclo[2.2.1]heptane-2-carbonyl)-7-fluoro-1-oxoisoindolin-2-yl)piperidine-2,6-dione], which IC50 is on record?
**A.** The IC50 was < 0.5 µM.

**Q.** O=C1CCC(N2Cc3cc(CN4CCC5(CC4)CCN(C(c4ccccc4)c4ccccc4)CC5)ccc3C2=O)C(=O)N1 (centres unmarked) [GT-06002, 3-(5-((9-benzhydryl-3,9-diazaspiro[5.5]undecan-3-yl)methyl)-1-oxoisoindolin-2-yl)piperidine-2,6-dione] was tested. Which IC50 did it give?
**A.** The IC50 was 0.5 to 1 µM.

**Q.** How did the IC50 turn out when O=C1CCC(N2Cc3c(ccc(CN4CCC5(CC4)CCN(C(c4ccccc4)c4ccccc4)CC5)c3F)C2=O)C(=O)N1 (centres unmarked) [GT-06024, 3-(5-((9-benzhydryl-3,9-diazaspiro[5.5]undecan-3-yl)methyl)-4-fluoro-1-oxoisoindolin-2-yl)piperidine-2,6-dione] was run?
**A.** Its IC50 is 0.5 to 1 µM.

**Q.** Which IC50 does the source give for O=C1CCC(N2Cc3cc(CN4CCC5(CC4)CCN(C(c4ccccc4)c4ccccc4)CC5)c(F)cc3C2=O)C(=O)N1 (centres unmarked) [GT-06025, 3-(5-((9-benzhydryl-3,9-diazaspiro[5.5]undecan-3-yl)methyl)-6-fluoro-1-oxoisoindolin-2-yl)piperidine-2,6-dione] here?
**A.** Its IC50 is 0.5 to 1 µM.

**Q.** For O=C1CCC(N2Cc3cc(CN4CCC5(CC4)CCN(C(c4ccccc4)c4ccccc4)CC5)cc(F)c3C2=O)C(=O)N1 (centres unmarked) [GT-06026, 3-(5-((9-benzhydryl-3,9-diazaspiro[5.5]undecan-3-yl)methyl)-7-fluoro-1-oxoisoindolin-2-yl)piperidine-2,6-dione], which IC50 is on record?
**A.** The IC50 was 0.5 to 1 µM.
